Source: patent US10611759B2, “Glutaminase inhibitors” (Rhizen Pharmaceuticals SA, priority 2014, dated 2020)
Where two headings read alike, the source gives them in different places.

Molecular target: T1, Glutaminase(Brain) (Mus musculus, UniProt D3Z7P3)
T1 sequence (D3Z7P3 55-674): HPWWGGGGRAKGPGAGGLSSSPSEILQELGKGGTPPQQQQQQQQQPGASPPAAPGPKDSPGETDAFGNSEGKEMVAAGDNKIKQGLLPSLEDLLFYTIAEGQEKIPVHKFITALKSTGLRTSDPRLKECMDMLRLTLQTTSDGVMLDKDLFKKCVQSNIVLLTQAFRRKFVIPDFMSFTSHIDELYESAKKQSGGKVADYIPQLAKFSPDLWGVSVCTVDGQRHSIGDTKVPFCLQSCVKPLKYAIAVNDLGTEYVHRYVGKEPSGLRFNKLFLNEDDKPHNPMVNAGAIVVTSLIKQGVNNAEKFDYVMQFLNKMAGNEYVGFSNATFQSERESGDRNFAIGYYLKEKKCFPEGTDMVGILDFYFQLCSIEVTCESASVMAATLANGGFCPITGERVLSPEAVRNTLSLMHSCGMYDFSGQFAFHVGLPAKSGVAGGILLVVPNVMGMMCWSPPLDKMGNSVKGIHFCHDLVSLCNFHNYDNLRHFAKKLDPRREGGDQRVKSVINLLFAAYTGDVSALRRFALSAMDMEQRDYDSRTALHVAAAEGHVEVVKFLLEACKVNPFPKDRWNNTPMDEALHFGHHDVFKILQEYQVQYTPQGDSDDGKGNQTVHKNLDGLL
Test: Glutaminase enzyme activity using glutaminase enzyme from mice brain/kidney homogenate (Nessler's reagent, ammonia)
Format: biochemical
Conditions: for inhibition at 0.1 µM: read-out: Glutaminase(Brain) activity % inhibition 0.1 μM; for inhibition at 1 µM: read-out: Glutaminase(Brain) activity % inhibition @1 μM
Description: Assay 3: Determination of Glutaminase Enzyme Activity Using Glutaminase Enzyme from Mice Brain/Kidney
Step 1: Preparation of Tissue Homogenates:
Male Balb/c mice were administered 0.28 M ammonium chloride in drinking water for 7 days. The animals were sacrificed and brain/kidney organs collected on dry ice. […] The tissue was homogenized and supernatants were stored at −80° C. until the enzyme assay was performed.
Aim: Compounds were assessed for their ability to inhibit the enzymatic activity of L-glutaminase present in mice brain/kidney homogenate.
Protocol: The assay was performed using a colorimetric method using Nessler's Reagent by quantifying the amount of ammonia formed as a by product during the enzymatic conversion of L-glutamine to glutamate. In the routine assay, 16 μl of tissue homogenate is added to 33 μl of Tris-Hcl phosphate buffer (pH 8) along with 1 μl of DMSO/test compound containing the desired final concentration and vortexed briefly. 50 μl of 20 mM L-glutamine Tris buffer is added to start the reaction and incubated for 15 minutes at 37° C. The ammonia formed is detected by adding 20 μl of reaction mixture to cold water in a 96 well plate followed by 20 μl of Nessler's reagent. The colour developed is measured at 450 nm. Data Analysis: Activity of the test compound is reported as % inhibition and the data is analyzed using Graphpad Prism (Graphpad software; San Diego Calif.) for IC50 determination.

Structure (SMILES) | inhibition at 0.1 µM (0.1 μM, mice brain homogenate) | inhibition at 1 µM (1 μM, mice brain homogenate) | inhibition at 0.1 µM | inhibition at 1 µM
O=C(Cc1cccc(OC(F)(F)F)c1)Nc1ccc(N2CCCC(c3nnc(NC(=O)Cc4ccccn4)s3)C2)cn1 (racemic) [Example 2, (RS)-2-(Pyridin-2-yl)-N-(5-(1-(6-(2-(3-(trifluoromethoxy)phenyl)acetamido)pyridin-3-yl)piperidin-3-yl)-1,3,4-thiadiazol-2-yl)acetamide] | < 25% | 25 to 50% | – | –
O=C(Cc1cccc(OC(F)(F)F)c1)Nc1ccc(N2CCCC(c3nnc(NC(=O)Cc4ccccn4)s3)C2)cn1 (single isomer, unassigned) [Example 2A, (R) or (S) 2-(Pyridin-2-yl)-N-(5-(1-(6-(2-(3-(trifluoromethoxy)phenyl)acetamido)pyridin-3-yl)piperidin-3-yl)-1,3,4-thiadiazol-2-yl)acetamide] | < 25% | < 25% | – | –
O=C(Cc1cccc(OC(F)(F)F)c1)Nc1ccc(N2CCCC(c3nnc(NC(=O)Cc4cccnc4)s3)C2)cn1 (single isomer, unassigned) [Example 3B, (S) or (R) 2-(Pyridin-3-yl)-N-(5-(1-(6-(2-(3-(trifluoromethoxy)phenyl)acetamido)pyridine-3-yl)piperidin-3-yl)-1,3,4-thiadiazol-2-yl)acetamide] | < 25% | < 25% | – | –
O=C(Cc1cccc(OC(F)(F)F)c1)Nc1ccc(N2CCC(c3nnc(NC(=O)Cc4ccccn4)s3)CC2)cn1 [Example 1, 2-(Pyridin-2-yl)-N-(5-(1-(6-(2-(3-(trifluoromethoxy)phenyl)acetamido)pyridin-3-yl)piperidin-4-yl)-1,3,4-thiadiazol-2-yl)acetamide] | – | – | < 25% | 50 to 75%
N#Cc1cccc(CC(=O)Nc2nnc(C3CCN(c4ccc(NC(=O)Cc5cccc(OC(F)(F)F)c5)nc4)CC3)s2)c1 [Example-5, 2-(3-Cyanophenyl)-N-(5-(1-(6-(2-(3-(trifluoromethoxy)phenyl)acetamido)pyridin-3-yl)piperidin-4-yl)-1,3,4-thiadiazol-2-yl)acetamide] | < 25% | 25 to 50% | – | –
O=C(Cc1ccccn1)Nc1ccc(N2CCC(c3nnc(NC(=O)Cc4cccc(OC(F)(F)F)c4)s3)CC2)cn1 [Example-6, 2-(Pyridin-2-yl)-N-(5-(4-(5-(2-(3-(trifluoromethoxy)phenyl)acetamido)-1,3,4-thiadiazol-2-yl)piperidin-1-yl)pyridin-2-yl)acetamide] | < 25% | < 25% | – | –
O=C(Cc1cccc(OC(F)(F)F)c1)Nc1ccc(N2CCCC(c3nnc(NC(=O)Cc4ccccc4Cl)s3)C2)nn1 (centres unmarked) [Example-13, 2-(2-Chlorophenyl)-N-(5-(1-(6-(2-(3-(trifluoromethoxy)phenyl)acetamido)pyridazin-3-yl)piperidin-3-yl)-1,3,4-thiadiazol-2-yl)acetamide] | < 25% | 50 to 75% | – | –
O=C(Cc1cccnc1)Nc1ccc(N2CCC(c3nnc(NC(=O)Cc4c(F)ccc(F)c4F)s3)CC2)nn1 [Example-19, 2-(Pyridin-3-yl)-N-(6-(4-(5-(2-(2,3,6-trifluorophenyl)acetamido)-1,3,4-thiadiazol-2-yl)piperidin-1-yl)pyridazin-3-yl)acetamide] | 50 to 75% | 75 to 100% | – | –
O=C(Cc1ccccn1)Nc1ccc(N2CCC(c3nnc(NC(=O)Cc4c(F)ccc(F)c4F)s3)CC2)nn1 [Example-20, 2-(Pyridin-2-yl)-N-(6-(4-(5-(2-(2,3,6-trifluorophenyl)acetamido)-1,3,4-thiadiazol-2-yl)piperidin-1-yl)pyridazin-3-yl)acetamide] | 25 to 50% | 50 to 75% | – | –
O=C(Cc1ccccn1)Nc1ccc(N2CCC(c3nnc(NC(=O)Cc4cccc(F)c4F)s3)CC2)nn1 [Example-21, 2-(2,3-Difluorophenyl)-N-(5-(1-(6-(2-(pyridin-2-yl)acetamido)pyridazin-3-yl)piperidin-4-yl)-1,3,4-thiadiazol-2-yl)acetamide] | 50 to 75% | 75 to 100% | – | –
O=C(Cc1ccccn1)Nc1ccc(N2CCC(c3nnc(NC(=O)Cc4ccc(F)c(F)c4)s3)CC2)nn1 [Example-22, 2-(3,4-Difluorophenyl)-N-(5-(1-(6-(2-(pyridin-2-yl)acetamido)pyridazin-3-yl)piperidin-4-yl)-1,3,4-thiadiazol-2-yl)acetamide] | 50 to 75% | 75 to 100% | – | –
O=C(Cc1ccccn1)Nc1ccc(N2CCC(c3nnc(NC(=O)Cc4ccccc4F)s3)CC2)nn1 [Example-23, 2-(2-Fluorophenyl)-N-(5-(1-(6-(2-(pyridin-2-yl)acetamido)pyridazin-3-yl)piperidin-4-yl)-1,3,4-thiadiazol-2-yl)acetamide] | 50 to 75% | 75 to 100% | – | –
O=C(Cc1ccccn1)Nc1ccc(N2CCC(c3nnc(NC(=O)Cc4cccc(F)c4)s3)CC2)nn1 [Example-24, 2-(3-Fluorophenyl)-N-(5-(1-(6-(2-(pyridin-2-yl)acetamido)pyridazin-3-yl)piperidin-4-yl)-1,3,4-thiadiazol-2-yl)acetamide] | 50 to 75% | 75 to 100% | – | –
O=C(Cc1ccccn1)Nc1ccc(N2CCC(c3nnc(NC(=O)Cc4ccc(F)cc4)s3)CC2)nn1 [Example-25, 2-(4-Fluorophenyl)-N-(5-(1-(6-(2-(pyridin-2-yl)acetamido)pyridazin-3-yl)piperidin-4-yl)-1,3,4-thiadiazol-2-yl)acetamide] | 50 to 75% | 75 to 100% | – | –
COc1ccccc1CC(=O)Nc1nnc(C2CCN(c3ccc(NC(=O)Cc4ccccn4)nn3)CC2)s1 [Example-26, 2-(2-Methoxyphenyl)-N-(5-(1-(6-(2-(pyridin-2-yl)acetamido)pyridazin-3-yl)piperidin-4-yl)-1,3,4-thiadiazol-2-yl)acetamide] | 50 to 75% | 75 to 100% | – | –
O=C(Cc1ccccn1)Nc1ccc(N2CCC(c3nnc(NC(=O)Cc4ccccc4Cl)s3)CC2)nn1 [Example-27, 2-(2-Chlorophenyl)-N-(5-(1-(6-(2-(pyridin-2-yl)acetamido)pyridazin-3-yl)piperidin-4-yl)-1,3,4-thiadiazol-2-yl)acetamide] | 50 to 75% | 75 to 100% | – | –
O=C(Cc1ccccn1)Nc1ccc(N2CCC(c3nnc(NC(=O)Cc4cc(Cl)ccc4C(F)(F)F)s3)CC2)nn1 [Example-28, 2-(5-Chloro-2-(trifluoromethyl)phenyl)-N-(5-(1-(6-(2-(pyridin-2-yl)acetamido)pyridazin-3-yl)piperidin-4-yl)-1,3,4-thiadiazol-2-yl)acetamide] | 50 to 75% | 50 to 75% | – | –
O=C(Cc1ccccn1)Nc1ccc(N2CCC(c3nnc(NC(=O)Cc4ccc(Cl)cc4)s3)CC2)nn1 [Example-29, 2-(4-Chlorophenyl)-N-(5-(1-(6-(2-(pyridin-2-yl)acetamido)pyridazin-3-yl)piperidin-4-yl)-1,3,4-thiadiazol-2-yl)acetamide] | 50 to 75% | 75 to 100% | – | –
O=C(Cc1cccc(OC(F)(F)F)c1)Nc1ccc(N2CCC(c3nnc(NC(=O)Cc4ccc5ncccc5c4)s3)CC2)nn1 [Example-30, 2-(Quinolin-6-yl)-N-(5-(1-(6-(2-(3-(trifluoromethoxy)phenyl)acetamido)pyridazin-3-yl)piperidin-4-yl)-1,3,4-thiadiazol-2-yl)acetamide] | 50 to 75% | 75 to 100% | – | –
